The source made the active and inactive calls.
Assays:
[1] = target: T1, Short transient receptor potential channel 4 (Mus musculus, UniProt Q9QUQ5); experiment: block of DAMGO-driven TRPC4 calcium entry – cell-based, HEK293 TRPC4/mu-opioid, Fluo-4 calcium, dose response (AID 434942); type: functional;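 also: potency of inhibitors blocking the TRPC4 calcium response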
T1 sequence (Q9QUQ5 whole entry): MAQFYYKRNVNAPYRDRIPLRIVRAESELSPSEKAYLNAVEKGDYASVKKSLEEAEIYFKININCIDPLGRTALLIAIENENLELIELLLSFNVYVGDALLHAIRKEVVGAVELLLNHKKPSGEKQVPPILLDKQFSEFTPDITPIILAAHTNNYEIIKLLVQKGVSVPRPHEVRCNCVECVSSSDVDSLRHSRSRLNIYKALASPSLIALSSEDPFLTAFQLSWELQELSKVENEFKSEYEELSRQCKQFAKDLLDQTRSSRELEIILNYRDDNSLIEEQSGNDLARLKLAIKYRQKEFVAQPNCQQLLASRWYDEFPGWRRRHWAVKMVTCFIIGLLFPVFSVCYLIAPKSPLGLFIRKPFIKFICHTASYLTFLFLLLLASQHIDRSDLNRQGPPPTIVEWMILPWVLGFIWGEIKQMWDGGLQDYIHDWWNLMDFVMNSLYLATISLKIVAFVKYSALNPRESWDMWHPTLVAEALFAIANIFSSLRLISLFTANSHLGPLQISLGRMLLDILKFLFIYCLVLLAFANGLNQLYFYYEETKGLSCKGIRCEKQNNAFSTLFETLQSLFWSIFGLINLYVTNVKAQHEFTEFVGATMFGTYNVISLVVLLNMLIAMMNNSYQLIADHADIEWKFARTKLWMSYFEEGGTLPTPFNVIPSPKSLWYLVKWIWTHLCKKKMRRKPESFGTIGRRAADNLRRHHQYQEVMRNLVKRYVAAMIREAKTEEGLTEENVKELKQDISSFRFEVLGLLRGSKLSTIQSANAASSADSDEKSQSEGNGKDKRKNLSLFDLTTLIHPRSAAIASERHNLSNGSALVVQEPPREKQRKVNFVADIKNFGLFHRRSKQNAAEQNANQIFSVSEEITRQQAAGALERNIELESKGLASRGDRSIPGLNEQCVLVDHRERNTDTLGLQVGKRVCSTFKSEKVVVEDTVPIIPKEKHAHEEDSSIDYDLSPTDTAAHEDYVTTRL

[2] = target: SUMO-activating enzyme (Homo sapiens, UniProt Q9UBT2); experiment: blockers of SAE1/SAE2–UBC9 SUMO transfer – biochemical, HTRF, uHTS, primary screen (AID 2006); type: protein-complex assay
Sequence of SUMO-activating enzyme (Q9UBE0 whole entry): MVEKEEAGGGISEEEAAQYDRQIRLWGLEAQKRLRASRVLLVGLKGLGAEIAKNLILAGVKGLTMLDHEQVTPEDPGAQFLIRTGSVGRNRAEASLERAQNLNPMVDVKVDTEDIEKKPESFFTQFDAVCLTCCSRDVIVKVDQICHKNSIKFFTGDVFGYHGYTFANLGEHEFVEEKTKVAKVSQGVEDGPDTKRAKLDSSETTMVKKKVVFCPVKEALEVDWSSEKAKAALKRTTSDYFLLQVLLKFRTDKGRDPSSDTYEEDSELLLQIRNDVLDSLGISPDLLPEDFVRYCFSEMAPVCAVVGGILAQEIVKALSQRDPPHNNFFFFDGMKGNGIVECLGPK
Sequence of SUMO-activating enzyme (Q9UBT2 whole entry): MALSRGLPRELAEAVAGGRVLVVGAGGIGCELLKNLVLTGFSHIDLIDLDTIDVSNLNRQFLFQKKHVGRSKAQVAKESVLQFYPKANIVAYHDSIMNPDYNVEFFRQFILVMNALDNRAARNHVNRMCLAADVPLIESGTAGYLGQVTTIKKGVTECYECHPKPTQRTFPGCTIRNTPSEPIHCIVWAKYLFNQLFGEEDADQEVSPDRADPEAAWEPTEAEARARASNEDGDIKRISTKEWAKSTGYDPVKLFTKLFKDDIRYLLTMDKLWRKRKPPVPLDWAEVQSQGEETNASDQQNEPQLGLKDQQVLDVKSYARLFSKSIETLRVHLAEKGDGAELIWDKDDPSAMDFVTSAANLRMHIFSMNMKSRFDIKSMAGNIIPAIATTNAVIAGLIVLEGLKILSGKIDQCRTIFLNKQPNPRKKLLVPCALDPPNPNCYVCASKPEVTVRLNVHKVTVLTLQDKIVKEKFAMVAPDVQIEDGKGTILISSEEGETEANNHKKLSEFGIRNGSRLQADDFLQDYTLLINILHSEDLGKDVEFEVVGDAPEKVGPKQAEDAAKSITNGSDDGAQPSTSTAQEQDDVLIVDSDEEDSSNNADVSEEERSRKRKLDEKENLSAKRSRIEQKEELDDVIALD

[3] = target: T2, Mannose-6-phosphate isomerase (Homo sapiens, UniProt P34949); experiment: MPI inhibition at elevated mannose 6-phosphate – biochemical, fluorescence intensity, high mannose 6-phosphate, primary screen (AID 1220)
T2 sequence (P34949 whole entry): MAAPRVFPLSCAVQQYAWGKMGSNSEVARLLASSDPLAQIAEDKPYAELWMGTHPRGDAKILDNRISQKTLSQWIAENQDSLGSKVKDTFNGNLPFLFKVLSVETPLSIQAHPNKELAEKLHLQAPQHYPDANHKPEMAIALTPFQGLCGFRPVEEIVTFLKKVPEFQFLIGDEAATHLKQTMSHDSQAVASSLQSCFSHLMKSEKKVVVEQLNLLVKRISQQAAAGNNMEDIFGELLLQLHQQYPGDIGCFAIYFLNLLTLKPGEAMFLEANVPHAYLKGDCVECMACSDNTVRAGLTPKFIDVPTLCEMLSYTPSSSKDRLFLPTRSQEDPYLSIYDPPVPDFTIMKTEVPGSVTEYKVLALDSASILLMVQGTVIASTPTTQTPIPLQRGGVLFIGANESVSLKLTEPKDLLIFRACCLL

[4] = target: T3, Rac GTPase-activating protein 1 (Homo sapiens, UniProt Q9H0H5); experiment: blockers of MgcRacGAP-driven Rac1 GTP hydrolysis – biochemical, ADP Hunter fluorescence, primary and confirmatory, confirmation (AID 624330); type: functional
T3 sequence (Q9H0H5 whole entry): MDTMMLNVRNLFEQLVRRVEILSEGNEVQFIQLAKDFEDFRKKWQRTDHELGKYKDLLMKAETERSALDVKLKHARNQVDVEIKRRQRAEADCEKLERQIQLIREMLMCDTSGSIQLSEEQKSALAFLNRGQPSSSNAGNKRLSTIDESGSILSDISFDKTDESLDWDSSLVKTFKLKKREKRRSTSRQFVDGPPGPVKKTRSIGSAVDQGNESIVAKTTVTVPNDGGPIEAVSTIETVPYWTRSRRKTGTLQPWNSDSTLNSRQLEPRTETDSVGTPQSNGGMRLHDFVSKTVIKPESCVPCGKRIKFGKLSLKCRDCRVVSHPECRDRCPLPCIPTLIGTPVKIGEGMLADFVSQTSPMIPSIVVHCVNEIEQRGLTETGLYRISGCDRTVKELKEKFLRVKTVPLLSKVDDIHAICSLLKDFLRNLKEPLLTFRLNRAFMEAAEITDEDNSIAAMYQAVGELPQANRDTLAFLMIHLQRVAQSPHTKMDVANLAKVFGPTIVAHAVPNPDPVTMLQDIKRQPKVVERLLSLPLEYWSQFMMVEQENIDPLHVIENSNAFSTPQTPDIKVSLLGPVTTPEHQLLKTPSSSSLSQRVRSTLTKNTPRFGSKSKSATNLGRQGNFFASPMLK

[5] = target: T4, Corticotropin-releasing factor receptor 2/Corticotropin-releasing factor-binding protein (Homo sapiens, UniProt P24387+Q13324); experiment: Dose Response confirmation of uHTS hits for small molecule antagonists of the CRF-binding protein and CRF-R2 receptor complex.; type: functional; conditions: read-out: IC50_Mean
T4 sequence (Q13324 whole entry): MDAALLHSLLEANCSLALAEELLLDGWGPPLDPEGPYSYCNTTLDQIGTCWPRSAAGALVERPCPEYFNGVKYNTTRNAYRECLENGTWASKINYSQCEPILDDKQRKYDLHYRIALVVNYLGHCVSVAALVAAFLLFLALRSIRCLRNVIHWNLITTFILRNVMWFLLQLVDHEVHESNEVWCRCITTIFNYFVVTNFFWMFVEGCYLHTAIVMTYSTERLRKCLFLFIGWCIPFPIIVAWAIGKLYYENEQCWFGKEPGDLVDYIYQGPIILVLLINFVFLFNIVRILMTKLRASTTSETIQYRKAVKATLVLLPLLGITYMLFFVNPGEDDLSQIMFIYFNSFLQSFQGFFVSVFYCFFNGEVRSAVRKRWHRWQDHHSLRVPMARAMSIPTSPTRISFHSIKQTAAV
T4 sequence (P24387 whole entry): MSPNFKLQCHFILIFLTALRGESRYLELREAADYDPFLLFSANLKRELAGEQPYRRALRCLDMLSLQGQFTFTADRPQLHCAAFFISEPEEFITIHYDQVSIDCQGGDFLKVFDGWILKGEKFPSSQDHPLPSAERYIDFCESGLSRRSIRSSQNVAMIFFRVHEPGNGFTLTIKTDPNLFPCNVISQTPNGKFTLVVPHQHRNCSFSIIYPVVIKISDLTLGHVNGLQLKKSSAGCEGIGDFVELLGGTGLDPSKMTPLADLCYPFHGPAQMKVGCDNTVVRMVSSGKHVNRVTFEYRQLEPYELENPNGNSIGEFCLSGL

[6] = target: T4, Corticotropin-releasing factor receptor 2/Corticotropin-releasing factor-binding protein; experiment: activators of CRF receptor 2 with binding protein – uHTS hits, confirmation (AID 602473); type: functional; conditions: read-out: EC50_Mean
[7] = blockers of CRF-binding protein–CRF-R2 complex – cell-based, uHTS hits, 384-well, dose response (AID 651639); type: functional, Homo sapiens; conditions: read-out: IC50_Mean
[8] = target: DNA dC->dU-editing enzyme APOBEC-3A (Homo sapiens, UniProt P31941); experiment: A3A deaminase inhibition for selectivity – biochemical, dose response (AID 504722); type: functional
Sequence of DNA dC->dU-editing enzyme APOBEC-3A (P31941 whole entry): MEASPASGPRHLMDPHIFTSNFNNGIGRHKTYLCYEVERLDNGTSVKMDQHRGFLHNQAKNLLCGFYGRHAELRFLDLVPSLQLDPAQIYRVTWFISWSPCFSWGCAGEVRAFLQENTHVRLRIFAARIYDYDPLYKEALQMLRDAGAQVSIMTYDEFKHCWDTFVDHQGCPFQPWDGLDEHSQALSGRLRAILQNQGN

[9] = target: DNA dC->dU-editing enzyme APOBEC-3G (Homo sapiens, UniProt Q9HC16); experiment: Dose Response confirmation of small molecule APOBEC3G DNA Deaminase Inhibitors via a fluorescence-based single-stranded DNA deaminase assay. [Related pubchem assays (depositor defined):AID493012, AID493028]; type: functional
Sequence of DNA dC->dU-editing enzyme APOBEC-3G (Q9HC16 whole entry): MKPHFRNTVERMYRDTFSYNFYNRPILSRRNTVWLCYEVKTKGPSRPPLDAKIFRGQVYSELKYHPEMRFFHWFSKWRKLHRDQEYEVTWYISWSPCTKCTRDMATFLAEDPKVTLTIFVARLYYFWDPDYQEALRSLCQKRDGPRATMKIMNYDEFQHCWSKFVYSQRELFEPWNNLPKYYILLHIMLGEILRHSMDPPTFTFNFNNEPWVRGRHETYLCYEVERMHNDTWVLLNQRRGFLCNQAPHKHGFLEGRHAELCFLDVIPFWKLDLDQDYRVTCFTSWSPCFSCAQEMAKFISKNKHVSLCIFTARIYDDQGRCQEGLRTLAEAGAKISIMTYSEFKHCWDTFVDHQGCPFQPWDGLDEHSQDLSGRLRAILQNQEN

[10] = target: T1, Short transient receptor potential channel 4; experiment: calcium entry via TRPC4 opening agents – cell-based, HEK293 TRPC4/mu-opioid, Fluo-4 calcium, dose response (AID 434937); type: functional
[11] = target: T5, Replicative DNA helicase DnaB (Mycobacterium tuberculosis, UniProt P9WMR3); experiment: DnaB intein splicing inhibitors, dose response, biochemical, cell-free fluorescence (AID 449749); type: functional
T5 sequence (P9WMR3 whole entry): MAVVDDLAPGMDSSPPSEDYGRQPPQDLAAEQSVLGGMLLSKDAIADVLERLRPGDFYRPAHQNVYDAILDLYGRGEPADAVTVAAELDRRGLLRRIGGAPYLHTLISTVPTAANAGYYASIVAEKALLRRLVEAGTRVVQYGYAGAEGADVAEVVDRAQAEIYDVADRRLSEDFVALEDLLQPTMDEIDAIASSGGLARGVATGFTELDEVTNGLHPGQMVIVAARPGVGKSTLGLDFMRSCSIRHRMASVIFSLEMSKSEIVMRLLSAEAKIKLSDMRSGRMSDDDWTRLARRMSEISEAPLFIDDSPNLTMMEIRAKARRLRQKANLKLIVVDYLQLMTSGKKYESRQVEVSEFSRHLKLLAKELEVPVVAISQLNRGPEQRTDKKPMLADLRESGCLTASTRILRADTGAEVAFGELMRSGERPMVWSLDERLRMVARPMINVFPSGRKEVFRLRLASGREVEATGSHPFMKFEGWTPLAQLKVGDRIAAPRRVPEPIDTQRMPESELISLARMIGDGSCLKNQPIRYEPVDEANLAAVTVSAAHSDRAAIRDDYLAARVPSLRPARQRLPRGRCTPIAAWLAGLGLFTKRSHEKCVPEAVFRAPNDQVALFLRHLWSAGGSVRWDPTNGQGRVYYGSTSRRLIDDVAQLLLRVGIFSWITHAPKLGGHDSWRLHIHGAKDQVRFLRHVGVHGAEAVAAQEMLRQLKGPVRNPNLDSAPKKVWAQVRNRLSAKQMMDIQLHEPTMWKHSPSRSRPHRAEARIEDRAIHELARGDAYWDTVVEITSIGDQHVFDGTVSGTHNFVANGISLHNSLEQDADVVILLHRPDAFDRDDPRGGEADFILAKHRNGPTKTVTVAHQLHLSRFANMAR

[12] = target: T6, Protein RecA (Mycobacterium tuberculosis, UniProt P9WHJ3); experiment: Fluorescence Cell-Free Homogeneous Dose Retest to Identify Inhibitors of RecA-Intein Splicing Activity. [Related pubchem assays (depositor defined):AID2097, AID2223, AID489010, AID492950]; type: functional
T6 sequence (P9WHJ3 whole entry): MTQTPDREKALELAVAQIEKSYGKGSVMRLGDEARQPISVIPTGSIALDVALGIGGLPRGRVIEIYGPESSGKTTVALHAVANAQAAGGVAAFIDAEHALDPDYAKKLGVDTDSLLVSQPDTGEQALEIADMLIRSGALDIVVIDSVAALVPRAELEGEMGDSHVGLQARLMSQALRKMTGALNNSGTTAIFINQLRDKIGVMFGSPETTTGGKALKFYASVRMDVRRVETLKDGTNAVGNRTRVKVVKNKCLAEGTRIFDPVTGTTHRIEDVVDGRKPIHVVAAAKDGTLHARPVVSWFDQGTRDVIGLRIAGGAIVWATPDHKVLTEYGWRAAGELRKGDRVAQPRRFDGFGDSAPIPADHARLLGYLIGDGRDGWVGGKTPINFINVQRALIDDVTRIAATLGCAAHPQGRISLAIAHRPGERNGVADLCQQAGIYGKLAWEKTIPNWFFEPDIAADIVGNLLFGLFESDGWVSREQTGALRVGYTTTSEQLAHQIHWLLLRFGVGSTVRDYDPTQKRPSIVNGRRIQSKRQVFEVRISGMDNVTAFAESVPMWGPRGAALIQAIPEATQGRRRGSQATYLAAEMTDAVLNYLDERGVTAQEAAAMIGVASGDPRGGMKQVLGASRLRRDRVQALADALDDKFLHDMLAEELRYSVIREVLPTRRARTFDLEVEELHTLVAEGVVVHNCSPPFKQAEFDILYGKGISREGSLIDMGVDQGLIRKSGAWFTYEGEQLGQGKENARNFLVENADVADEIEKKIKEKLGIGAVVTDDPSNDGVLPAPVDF

Compound: CCOC(=O)C1(Cc2ccccc2)CCN(CC2CC=CCC2)CC1 (stereo not drawn)
- EC50 [1]: 13.3 µM (active)

Compound: COc1ccc2c(c1)-c1nc(/N=C/c3cccc(OC)c3O)sc1CC2
- IC50 [2]: > 100 µM (inactive)
- IC50 [3]: > 50 µM (not active)
- IC50 [4]: 23.7 µM (active)

Compound: COC(=O)CSc1nn(-c2ccc(F)cc2)c(=S)s1
- EC50 [1]: 6.68 µM (active)
- IC50 [5]: 4.86 µM (active)
- EC50 [6]: > 53 µM (inactive)
- IC50 [7]: > 20 µM (inactive)

Compound: Cc1ccccc1C(=O)NNC(=S)NC(=O)COc1ccccc1
- IC50 [8]: > 100 µM (inactive)
- IC50 [9]: 12.7 µM (active)
- EC50 [10]: 5.31 µM (active)
- AC50 [11]: 29 µM (active)
- EC50 [12]: 17.7 µM (active)
